Measured values from patent US20120004205A1, “IL-13 INDUCED GENE SIGNATURE FOR EOSINOPHILIC ESOPHAGITIS” (Cincinnati Children's Hospital Medical Center, priority 2008, published 2012).

Tests used:
eotaxin-3 mRNA = assay: Eotaxin-3 mRNA in esophageal biopsy specimens of FP-treated EE patients, real-time PCR; format: in vivo, human; settings: P<0.01
Procedure: (§1) For each patient, one distal esophageal mucosal biopsy sample was immersed in RNA, later RNA stabilization reagent (Qiagen) and stored at 4 C. for <15 days. Total RNA was extracted using the RNAeasy Mini Kit (Qiagen) according to the manufacturer's recommendations. Hybridization to DNA microarray was performed by the MicroarrayCore at Cincinnati Children's Hospital Medical Center, as previously reported Blanchard, C. et al., (2006) J. Clin. Invest. 116: 536-547. The genome wide human Affymetrix U133A plus 2.0 Genechip® was used, and gene transcript levels were determined using algorithms in the Microarray Analysis Suite and GeneSpring software (Silicon Genetics) as previously described Blanchard, C. et al., (2006) J. Clin. Invest. 116: 536-547. […] Response to therapy was defined as <1 eosinophils/high power field (hpf) and no epithelial cell hyperplasia as described herein.
(§2) (rev) […]; IL-13R2 (396 bp): (fwd): […] (rev) […]; IL-4Rα (335 bp): (fwd): […]
(§3) Wood, N. et al., (2003) J. Exp. Med. 197: 703-709. In patients with EE with successful anti-inflammatory intervention, IL-13 overexperssion can be normalized. […] Similarly, eotaxin-3 mRNA was normalized in FP-responder patients (P<0.01; FIG. 6B). […] Remarkably, 98% of the EE transcriptome was reversed to expression levels detected in biopsy specimens of healthy patients (FIG. 6C). […]

IL-13 mRNA = IL-13 mRNA in esophageal biopsy specimens of FP-treated EE patients, real-time PCR; format: in vivo, human; settings: patients with EE treated successfully with FP
Procedure: as §1, §2, §3

patients with EE = settings: in vivo; cited from earlier work
cadherin-26 (CDH26) = assay: Cadherin-26 expression in FP-treated EE patients, real-time PCR; format: in vivo, human; settings: P<0.05
Text: as §2
Wood, N. et al., (2003) J. Exp. Med. 197: 703-709. In patients with EE with successful anti-inflammatory intervention, IL-13 overexperssion can be normalized. […] Similarly, eotaxin-3 mRNA was normalized in FP-responder patients (P<0.01; FIG. 6B). The research next aimed to determine whether the EE transcriptome was also reversible in patients with EE successfully treated with glucocorticoids. Remarkably, 98% of the EE transcriptome was reversed to expression levels detected in biopsy specimens of healthy patients (FIG. 6C). The reversible genes include cell-specific transcripts, including eosinophil, mast cell, lymphocyte, fibroblast, and epithelial genes. In addition, genes involved in cellular recruitment and cell proliferation were also reversible. Although the biopsy specimens had no abnormal microscopic features, 12 genes were still dysregulated (FIG. 6B).

EE transcriptome = assay: Microarray analysis of the EE transcriptome in successfully treated EE patients; format: in vivo, human
Procedure: as §1, with “herein. […] Wood, N. et al., (2003) J. Exp. Med. 197: 703-709. In patients with EE with successful anti-inflammatory intervention, IL-13 overexperssion can be normalized. […] Similarly, eotaxin-3 mRNA was normalized in FP-responder patients (P<0.01; FIG. 6B). […] Remarkably, 98% of the EE transcriptome was reversed to expression levels detected in biopsy specimens of healthy patients (FIG. 6C). […]” for “herein.”

## CCC(=O)O[C@]1(C(=O)SCF)[C@H](C)C[C@H]2[C@@H]3C[C@H](F)C4=CC(=O)C=C[C@]4(C)[C@@]3(F)[C@@H](O)C[C@@]21C [FP, S-fluoromethyl-6α,9-difluoro-11β-hydroxy-16α-methyl-3-oxo androsta-1,4-diene-17β-carbothioate, 17-propionate]
eotaxin-3 mRNA
  eotaxin-3 mRNA in FP-responder patients: normalized
IL-13 mRNA
  IL-13 mRNA levels in EE responders compared with untreated specimens: significantly (P<0.01) reduced
Patients with EE
  EE disease remission compared with placebo treatment: induces EE disease remission
cadherin-26 (CDH26)
  cadherin-26 expression in FP-treated patients with EE: residual upregulation
EE transcriptome; patients with EE successfully treated with glucocorticoids
  EE transcriptome reversed to expression levels of healthy patients: 98%
EE transcriptome; successfully treated EE patients, fold change filter 2
  genes still dysregulated after treatment: 12 genes
